Experimental data: ChEMBL document CHEMBL1201861, “Genomics of Drug Sensitity in Cancer screening data, Wellcome Trust Sanger Institute”

Experiments:
Experiment in all cases: cells
Format in all cases: functional, cell-based, Homo sapiens
[1] = system: K5; conditions: Homo sapiens, K5
Description: SANGER: Inhibition of human K5 cell growth in a cell viability assay.

[2] = system: TE-9; conditions: Homo sapiens, TE-9;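 also: cell growth inhibition, measured with a cell viability readout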
Description: SANGER: Inhibition of human TE-9 cell growth in a cell viability assay.

[3] = system: LXF-289 cell line; conditions: Homo sapiens, LXF-289
Description: SANGER: Inhibition of human LXF-289 cell growth in a cell viability assay.

[4] = system: U-266; conditions: Homo sapiens, U-266
Description: SANGER: Inhibition of human U-266 cell growth in a cell viability assay.

[5] = system: C8166; conditions: Homo sapiens, C8166;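 also: growth inhibition of human C8166 cells measured by a cell viability assay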
Description: SANGER: Inhibition of human C8166 cell growth in a cell viability assay.

[6] = system: LNCaP-Clone-FGC; conditions: Homo sapiens, LNCaP-Clone-FGC
Description: SANGER: Inhibition of human LNCaP-Clone-FGC cell growth in a cell viability assay.

[7] = system: DJM-1; conditions: Homo sapiens, DJM-1;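 also: growth inhibition of human DJM-1 cells, read out by a cell viability assay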
Description: SANGER: Inhibition of human DJM-1 cell growth in a cell viability assay.

[8] = system: SF-539; conditions: Homo sapiens, SF-539;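 also: Read-out is a cell viability assay, with IC50 reflecting inhibition of cell growth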
Description: SANGER: Inhibition of human SF539 cell growth in a cell viability assay.

[9] = system: LOX IMVI; conditions: Homo sapiens, LOX IMVI
Description: SANGER: Inhibition of human LOXIMVI cell growth in a cell viability assay.

[10] = system: MHH-NB-11; conditions: Homo sapiens, MHH-NB-11;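 also: growth inhibition of human MHH-NB-11 cells, read out by a cell viability assay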
Description: SANGER: Inhibition of human MHH-NB-11 cell growth in a cell viability assay.

[11] = system: COLO-824; conditions: Homo sapiens, COLO-824
Description: SANGER: Inhibition of human COLO-824 cell growth in a cell viability assay.

[12] = system: LS-411N; conditions: Homo sapiens, LS-411N
[13] = system: KNS-42; conditions: Homo sapiens, KNS-42;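 also: growth inhibition of KNS-42 cells, read out with a cell viability assay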
Description: SANGER: Inhibition of human KNS-42 cell growth in a cell viability assay.

[14] = system: KG-1; conditions: Homo sapiens, KG-1;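 also: growth inhibition of KG-1 cells, read out by a cell viability assay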
Description: SANGER: Inhibition of human KG-1 cell growth in a cell viability assay.

[15] = system: PSN1; conditions: Homo sapiens, PSN1;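 also: suppression of growth of human PSN1 cells, read out by a cell viability assay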
Description: SANGER: Inhibition of human PSN1 cell growth in a cell viability assay.

[16] = system: EW-16; conditions: Homo sapiens, EW-16;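 also: growth inhibition of human EW-16 cells, read out as cell viability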
Description: SANGER: Inhibition of human EW-16 cell growth in a cell viability assay.

[17] = system: ES7; conditions: Homo sapiens, ES7;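 also: growth inhibition of cultured human ES7 cells, read out as cell viability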
Description: SANGER: Inhibition of human ES7 cell growth in a cell viability assay.

[18] = system: KM-H2; conditions: Homo sapiens, KM-H2;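 also: growth inhibition of KM-H2 cells, read out by a cell viability assay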
Description: SANGER: Inhibition of human KM-H2 cell growth in a cell viability assay.

[19] = system: MZ2-MEL; conditions: Homo sapiens, MZ2-MEL;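 also: growth inhibition of MZ2-MEL cells read out with a cell viability assay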
Description: SANGER: Inhibition of human MZ2-MEL cell growth in a cell viability assay.

[20] = system: OMC-1; conditions: Homo sapiens, OMC-1;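 also: growth inhibition of the OMC-1 cell line, measured by a cell viability assay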
Description: SANGER: Inhibition of human OMC-1 cell growth in a cell viability assay.

[21] = system: NCI-H23; conditions: Homo sapiens, NCI-H23;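 also: cell viability assay measuring growth inhibition of NCI-H23 cells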
Description: SANGER: Inhibition of human NCI-H23 cell growth in a cell viability assay.

[22] = system: BB65-RCC; conditions: Homo sapiens, BB65-RCC;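 also: growth inhibition of the cell line, measured with a cell viability assay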
Description: SANGER: Inhibition of human BB65-RCC cell growth in a cell viability assay.

[23] = system: NB6; conditions: Homo sapiens, NB6;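 also: growth inhibition of NB6 cells, read out by a cell viability assay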
Description: SANGER: Inhibition of human NB6 cell growth in a cell viability assay.

[24] = system: IST-MEL1; conditions: Homo sapiens, IST-MEL1;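 also: growth inhibition of the cell line, read out with a cell viability assay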
Description: SANGER: Inhibition of human IST-MEL1 cell growth in a cell viability assay.

[25] = system: LU-134-A; conditions: Homo sapiens, LU-134-A
Description: SANGER: Inhibition of human LU-134-A cell growth in a cell viability assay.

[26] = system: SJSA-1; conditions: Homo sapiens, SJSA-1;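 also: growth inhibition of human SJSA-1 cells, read out through a cell viability measurement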
Description: SANGER: Inhibition of human SJSA-1 cell growth in a cell viability assay.

[27] = system: KY821; conditions: Homo sapiens, KY821;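 also: growth inhibition of human KY821 cells, read out by a cell viability assay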
Description: SANGER: Inhibition of human KY821 cell growth in a cell viability assay.

[28] = system: NCI-H510A; conditions: Homo sapiens, NCI-H510A;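 also: growth inhibition of NCI-H510A cells, read out with a cell viability assay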
Description: SANGER: Inhibition of human NCI-H510A cell growth in a cell viability assay.

[29] = system: L-363; conditions: Homo sapiens, L-363
Description: SANGER: Inhibition of human L-363 cell growth in a cell viability assay.

[30] = system: SW872; conditions: Homo sapiens, SW872;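 also: growth inhibition of SW872 cells, read out by a viability assay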
Description: SANGER: Inhibition of human SW872 cell growth in a cell viability assay.

[31] = system: A3-KAW; conditions: Homo sapiens, A3-KAW;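 also: growth inhibition of human A3-KAW cells, read out with a cell viability assay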
Description: SANGER: Inhibition of human A3-KAW cell growth in a cell viability assay.

[32] = system: IST-MES1; conditions: Homo sapiens, IST-MES1;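 also: growth inhibition of IST-MES1 cells, measured with a cell viability assay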
Description: SANGER: Inhibition of human IST-MES1 cell growth in a cell viability assay.

[33] = system: EOL1; conditions: Homo sapiens, EOL1;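 also: growth inhibition of EoL-1 cells, read out by a cell viability assay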
Description: SANGER: Inhibition of human EoL-1-cell cell growth in a cell viability assay.

[34] = system: LB2518-MEL; conditions: Homo sapiens, LB2518-MEL;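 also: growth inhibition of human LB2518-MEL cells, measured with a cell viability assay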
Description: SANGER: Inhibition of human LB2518-MEL cell growth in a cell viability assay.

[35] = system: TK-10; conditions: Homo sapiens, TK-10;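 also: growth inhibition of TK-10 cells, read out in a cell viability assay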
Description: SANGER: Inhibition of human TK10 cell growth in a cell viability assay.

[36] = system: OVCAR-4; conditions: Homo sapiens, OVCAR-4;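 also: growth inhibition of human OVCAR-4 cells, measured with a cell viability assay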
Description: SANGER: Inhibition of human OVCAR-4 cell growth in a cell viability assay.

[37] = system: TE-5; conditions: Homo sapiens, TE-5;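 also: inhibition of cell growth, read out by a cell viability assay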
Description: SANGER: Inhibition of human TE-5 cell growth in a cell viability assay.

[38] = system: LB771-HNC; conditions: Homo sapiens, LB771-HNC;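 also: growth inhibition of LB771-HNC human cells, read out with a cell viability assay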
Description: SANGER: Inhibition of human LB771-HNC cell growth in a cell viability assay.

[39] = system: ES5; conditions: Homo sapiens, ES5;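 also: growth inhibition of human ES5 cells, read out by a cell viability assay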
Description: SANGER: Inhibition of human ES5 cell growth in a cell viability assay.

[40] = system: SK-N-FI; conditions: Homo sapiens, SK-N-FI;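 also: cell viability assay measuring growth inhibition of human SK-N-FI cells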
Description: SANGER: Inhibition of human SK-N-FI cell growth in a cell viability assay.

[41] = system: RPMI-8866; conditions: Homo sapiens, RPMI-8866
Description: SANGER: Inhibition of human RPMI-8866 cell growth in a cell viability assay.

[42] = system: GB-1; conditions: Homo sapiens, GB-1;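 also: growth of GB-1 cells judged by a viability assay, IC50 marks the concentration inhibiting growth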
Description: SANGER: Inhibition of human GB-1 cell growth in a cell viability assay.

[43] = system: NCI-H82; conditions: Homo sapiens, NCI-H82;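 also: growth inhibition of NCI-H82 cells, measured with a cell viability readout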
Description: SANGER: Inhibition of human NCI-H82 cell growth in a cell viability assay.

[44] = system: BB49-HNC; conditions: Homo sapiens, BB49-HNC;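 also: cell viability assay read-out, reported as inhibition of BB49-HNC cell growth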
Description: SANGER: Inhibition of human BB49-HNC cell growth in a cell viability assay.

[45] = system: HOP-62; conditions: Homo sapiens, HOP-62;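 also: cell growth inhibition determined with a viability assay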
Description: SANGER: Inhibition of human HOP-62 cell growth in a cell viability assay.

[46] = system: NCI-H1838; conditions: Homo sapiens, NCI-H1838;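 also: growth inhibition of NCI-H1838 cells, determined with a cell viability readout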
Description: SANGER: Inhibition of human NCI-H1838 cell growth in a cell viability assay.

[47] = system: KNS-81-FD; conditions: Homo sapiens, KNS-81-FD;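 also: growth inhibition of KNS-81-FD cells, read out with a cell viability assay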
Description: SANGER: Inhibition of human KNS-81-FD cell growth in a cell viability assay.

[48] = system: Mo; conditions: Homo sapiens, Mo
Description: SANGER: Inhibition of human Mo-T cell growth in a cell viability assay.

[49] = system: MPP-89; conditions: Homo sapiens, MPP-89;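 also: growth inhibition of human MPP-89 cells, read out with a cell viability assay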
Description: SANGER: Inhibition of human MPP-89 cell growth in a cell viability assay.

Measured: IC50

O=C(O)c1ccc(-c2c[nH]c3ncc(-c4ccccc4)cc23)cc1C1CCCC1 [GSK-650394]
> 16 µM: [1] | [2] | [4] | [5] | [6] | [7] | [8] | [9] | [10] | [11] | [13] | [14] | [17] | [18] | [20] | [21] | [22] | [23] | [24] | [28] | [29] | [32] | [34] | [35] | [36] | [37] | [38] | [39] | [40] | [41] | [43] | [44] | [45] | [46] | [47] | [48]
2190 nM: [15]
> 16000 nM: [27] | [31]
13.7 µM: [30]
11.3 µM: [33]
6.55 µM: [25]
5.75 µM: [16]
15.1 µM: [26]
9.27 µM: [49]
6.61 µM: [19]
5.96 µM: [42]
10.4 µM: [12]
1400 nM: [3]

CCN(CC)CCNC(=O)c1c(C)[nH]c(/C=C2\C(=O)Nc3ccc(F)cc32)c1C [SUNITINIB]
7.38 µM: [43]
3.71 µM: [44]
4.81 µM: [29]
6.03 µM: [14]
2800 nM: [27]
4.34 µM: [45]
< 0.0312 µM: [33]
0.71 µM: [42]
> 8 µM: [1] | [2] | [4] | [5] | [6] | [7] | [8] | [9] | [10] | [11] | [12] | [13] | [17] | [18] | [19] | [20] | [21] | [22] | [23] | [24] | [25] | [28] | [30] | [32] | [34] | [35] | [36] | [37] | [38] | [39] | [40] | [41] | [46] | [47] | [48] | [49]
7.66 µM: [26]
1630 nM: [31]
2.14 µM: [16]
2730 nM: [3]
1510 nM: [15]
